This passage reports pest or weed control results from patent US10206394B2, “Herbicidal compounds” (Syngenta Participations AG, priority 2014, dated 2019).

Like-named read-outs stand apart in the source and are kept apart here.

Holding throughout (assay): Glasshouse assay for herbicidal activity (pre- and post-emergence), percentage phytotoxicity
Common to all, as to assay type: in vivo

Assay [1] concerns Avena fatua (AVEFA). To be noted: Avena fatua. The gist of the method: (§1)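 Damage was rated visually as percent phytotoxicity, 100% meaning total kill, 20 days after pre-emergence application (made one day post-sowing) or 15 days after post-emergence application (made about 12 days post-sowing). Plants were grown under 16 h light, 65% humidity, warm species 24/18° C, cool 20/16° C.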

In assay [2] the test system is Alopecurus myosuroides (ALOMY). To be noted: Alopecurus myosuroides. The gist of the method:
as §1

Assay [3] has as its system Lolium perenne (LOLPE). Particulars: Lolium perenne. The gist of the method: as §1
Assay [4] deals with Echinochloa crus-galli (ECHCG). Particulars: Echinochloa crus-galli. The essentials:
as §1

[5] abbreviates: post-emergence, 360 h, Rate 250 g/ha, post-emergence, visual assessment 15 DAA, 100%=total damage, 0%=no damage, read-out: Post-emergence herbicidal activity (percentage phytotoxicity) AVEFA POST.
Setting [6] is: pre-emergence, 480 h, Rate 250 g/ha, pre-emergence, visual assessment 20 DAA, 100%=total damage, 0%=no damage, read-out: Pre-emergence herbicidal activity (percentage phytotoxicity) AVEFA PRE.
The mark [7] stands for this setting: post-emergence, 360 h, Rate 250 g/ha, post-emergence, visual assessment 15 DAA, 100%=total damage, 0%=no damage, read-out: Post-emergence herbicidal activity (percentage phytotoxicity) ALOMY POST.
Where [8] appears, read: pre-emergence, 480 h, Rate 250 g/ha, pre-emergence, visual assessment 20 DAA, 100%=total damage, 0%=no damage, read-out: Pre-emergence herbicidal activity (percentage phytotoxicity) ALOMY PRE.
[9] abbreviates: post-emergence, 360 h, Rate 250 g/ha, post-emergence, visual assessment 15 DAA, 100%=total damage, 0%=no damage, read-out: Post-emergence herbicidal activity (percentage phytotoxicity) LOLPE POST.
Setting [10] is: pre-emergence, 480 h, Rate 250 g/ha, pre-emergence, visual assessment 20 DAA, 100%=total damage, 0%=no damage, read-out: Pre-emergence herbicidal activity (percentage phytotoxicity) LOLPE PRE.
Setting [11] is: post-emergence, 360 h, Rate 250 g/ha, post-emergence, visual assessment 15 DAA, 100%=total damage, 0%=no damage, read-out: Post-emergence herbicidal activity (percentage phytotoxicity) ECHCG POST.
The mark [12] stands for this setting: pre-emergence, 480 h, Rate 250 g/ha, pre-emergence, visual assessment 20 DAA, 100%=total damage, 0%=no damage, read-out: Pre-emergence herbicidal activity (percentage phytotoxicity) ECHCG PRE.
Setting [13] is: post-emergence, 360 h, 250 g/ha, post-emergence, 15 DAA, visual assessment (100%=total damage, 0%=no damage), read-out: Post-emergence herbicidal activity (percentage phytotoxicity) AVEFA POST.
Where [14] appears, read: pre-emergence, 480 h, 250 g/ha, pre-emergence, 20 DAA, visual assessment (100%=total damage, 0%=no damage), read-out: Pre-emergence herbicidal activity (percentage phytotoxicity) AVEFA PRE.
The mark [15] stands for this setting: post-emergence, 360 h, 250 g/ha, post-emergence, 15 DAA, visual assessment (100%=total damage, 0%=no damage), read-out: Post-emergence herbicidal activity (percentage phytotoxicity) ALOMY POST.
[16] abbreviates: pre-emergence, 480 h, 250 g/ha, pre-emergence, 20 DAA, visual assessment (100%=total damage, 0%=no damage), read-out: Pre-emergence herbicidal activity (percentage phytotoxicity) ALOMY PRE.
The mark [17] stands for this setting: post-emergence, 360 h, 250 g/ha, post-emergence, 15 DAA, visual assessment (100%=total damage, 0%=no damage), read-out: Post-emergence herbicidal activity (percentage phytotoxicity) LOLPE POST.
Where [18] appears, read: pre-emergence, 480 h, 250 g/ha, pre-emergence, 20 DAA, visual assessment (100%=total damage, 0%=no damage), read-out: Pre-emergence herbicidal activity (percentage phytotoxicity) LOLPE PRE.
The mark [19] stands for this setting: post-emergence, 360 h, 250 g/ha, post-emergence, 15 DAA, visual assessment (100%=total damage, 0%=no damage), read-out: Post-emergence herbicidal activity (percentage phytotoxicity) ECHCG POST.
Setting [20] is: pre-emergence, 480 h, 250 g/ha, pre-emergence, 20 DAA, visual assessment (100%=total damage, 0%=no damage), read-out: Pre-emergence herbicidal activity (percentage phytotoxicity) ECHCG PRE.

Regarding `C=CCNC(=O)CC1CC(=O)C(c2c(C)cc(-c3ccc(F)cn3)cc2C)C1=O` (stereo not drawn) [Compound B395], the pest or weed control at 250 g/ha in assay [1] (setting [5]) was 100%; in assay [1] (setting [6]), 100%; in assay [2] (setting [7]), 100%; in assay [2] (setting [8]), 100%; in assay [3] (setting [9]), 90%; in assay [3] (setting [10]), 100%. The pest or weed control at 250 g/ha in assay [4] (setting [11]) and in assay [4] (setting [12]) was 100% in each case.

As for `CC#Cc1cc(C)c(C2C(=O)CC(CC(=O)NC(C)(C)C)C2=O)c(CC)c1` (stereo not drawn) [Compound A48], the pest or weed control at 250 g/ha in assay [1] (post-emergence, 360 h, Rate 250 g/ha, post-emergence, assessed visually 15 DAA, 100%=total damage, 0%=no damage, read-out: Post-emergence herbicidal activity (percentage phytotoxicity) AVEFA POST) was 100%; in assay [1] (pre-emergence, 480 h, Rate 250 g/ha, pre-emergence, assessed visually 20 DAA, 100%=total damage, 0%=no damage, read-out: Pre-emergence herbicidal activity (percentage phytotoxicity) AVEFA PRE), 90%; in assay [2] (post-emergence, 360 h, Rate 250 g/ha, post-emergence, assessed visually 15 DAA, 100%=total damage, 0%=no damage, read-out: Post-emergence herbicidal activity (percentage phytotoxicity) ALOMY POST), 100%; in assay [2] (pre-emergence, 480 h, Rate 250 g/ha, pre-emergence, assessed visually 20 DAA, 100%=total damage, 0%=no damage, read-out: Pre-emergence herbicidal activity (percentage phytotoxicity) ALOMY PRE) it was 100%; in assay [3] (post-emergence, 360 h, Rate 250 g/ha, post-emergence, assessed visually 15 DAA, 100%=total damage, 0%=no damage, read-out: Post-emergence herbicidal activity (percentage phytotoxicity) LOLPE POST), 100%; in assay [3] (pre-emergence, 480 h, Rate 250 g/ha, pre-emergence, assessed visually 20 DAA, 100%=total damage, 0%=no damage, read-out: Pre-emergence herbicidal activity (percentage phytotoxicity) LOLPE PRE), 100%. For the same compound, the pest or weed control at 250 g/ha came to 100% in assay [4] (post-emergence, 360 h, Rate 250 g/ha, post-emergence, assessed visually 15 DAA, 100%=total damage, 0%=no damage, read-out: Post-emergence herbicidal activity (percentage phytotoxicity) ECHCG POST) and 100% in assay [4] (pre-emergence, 480 h, Rate 250 g/ha, pre-emergence, assessed visually 20 DAA, 100%=total damage, 0%=no damage, read-out: Pre-emergence herbicidal activity (percentage phytotoxicity) ECHCG PRE).

As to `Cc1cc(-c2ccc(C#N)cn2)cc(C)c1C1C(=O)CC(CC(=O)NC(C)(C)C)C1=O` (stereo not drawn) [Compound B75], the pest or weed control at 250 g/ha was 100% in assay [1] (setting [13]); 90% in assay [1] (setting [14]); 100% in assay [2] (setting [15]); 100% in assay [2] (setting [16]); 100% in assay [3] (setting [17]); 90% in assay [3] (setting [18]). For the same compound, the pest or weed control at 250 g/ha in assay [4] (setting [19]) and in assay [4] (setting [20]) was 100% each time.

As to `Cc1cc(C)c(C2C(=O)CC(CC(=O)NCc3ccc(Cl)cc3)C2=O)c(C)c1` (stereo not drawn) [Compound B13], the pest or weed control at 250 g/ha in assay [1] (setting [13]) worked out at 70%; in assay [1] (setting [14]), 40%; in assay [2] (setting [15]), 50%; in assay [2] (setting [16]), 50%; in assay [3] (setting [17]), 90%; in assay [3] (setting [18]), 90%. Also, the pest or weed control at 250 g/ha in assay [4] (setting [19]) was found to be 80%; in assay [4] (setting [20]), 90%.

Take `Cc1cc(C)c(C2C(=O)CC(CC(=O)NC(C)C3CC3)C2=O)c(C)c1` (stereo not drawn) [Compound B31]: the pest or weed control at 250 g/ha turned out to be 80% in assay [1] (setting [13]); 70% in assay [1] (setting [14]); 80% in assay [2] (setting [15]); 100% in assay [2] (setting [16]); 80% in assay [3] (setting [17]); 90% in assay [3] (setting [18]). For the same compound, the values for the pest or weed control at 250 g/ha in assay [4] (setting [19]) and in assay [4] (setting [20]) were 80% and 90%, respectively.

For the compound `Cc1ccc(CNC(=O)CC2CC(=O)C(c3c(C)cc(-c4ccc(F)cn4)cc3C)C2=O)cc1` (stereo not drawn) [Compound B398], the pest or weed control at 250 g/ha is 80% in assay [1] (setting [5]); 40% in assay [1] (setting [6]); 80% in assay [2] (setting [7]); 50% in assay [2] (setting [8]); 90% in assay [3] (setting [9]); 70% in assay [3] (setting [10]). The pest or weed control at 250 g/ha in assay [4] (setting [11]) was determined as 100%; in assay [4] (setting [12]) it was 70%.

For the compound `Cc1cc(-c2ccc(Cl)cn2)cc(C)c1C1C(=O)CC(CC(=O)NCc2cccs2)C1=O` (stereo not drawn) [Compound B373], the pest or weed control at 250 g/ha in assay [1] (setting [5]) worked out at 100%; in assay [1] (setting [6]), 80%; in assay [2] (setting [7]), 80%; in assay [2] (setting [8]), 70%; in assay [3] (setting [9]), 80%; in assay [3] (setting [10]), 100%. In addition, the pest or weed control at 250 g/ha in assay [4] (setting [11]) and in assay [4] (setting [12]) was 100% in each case.

In the case of `CCc1cc(OCC(F)(F)F)cc(C)c1C1C(=O)CC(CC(=O)NCc2cccc(Cl)c2)C1=O` (stereo not drawn) [Compound B261], the pest or weed control at 250 g/ha was found to be 100% in assay [1] (post-emergence, 360 h, POST-emergence, rate 250 g/ha, visual score 15 DAA (100%=total damage, 0%=no damage), read-out: Post-emergence herbicidal activity (percentage phytotoxicity) AVEFA POST); 80% in assay [1] (pre-emergence, 480 h, PRE-emergence, rate 250 g/ha, visual score 20 DAA (100%=total damage, 0%=no damage), read-out: Pre-emergence herbicidal activity (percentage phytotoxicity) AVEFA PRE); 100% in assay [2] (post-emergence, 360 h, POST-emergence, rate 250 g/ha, visual score 15 DAA (100%=total damage, 0%=no damage), read-out: Post-emergence herbicidal activity (percentage phytotoxicity) ALOMY POST); 80% in assay [2] (pre-emergence, 480 h, PRE-emergence, rate 250 g/ha, visual score 20 DAA (100%=total damage, 0%=no damage), read-out: Pre-emergence herbicidal activity (percentage phytotoxicity) ALOMY PRE); 100% in assay [3] (post-emergence, 360 h, POST-emergence, rate 250 g/ha, visual score 15 DAA (100%=total damage, 0%=no damage), read-out: Post-emergence herbicidal activity (percentage phytotoxicity) LOLPE POST); 90% in assay [3] (pre-emergence, 480 h, PRE-emergence, rate 250 g/ha, visual score 20 DAA (100%=total damage, 0%=no damage), read-out: Pre-emergence herbicidal activity (percentage phytotoxicity) LOLPE PRE). In addition, the pest or weed control at 250 g/ha in assay [4] (post-emergence, 360 h, POST-emergence, rate 250 g/ha, visual score 15 DAA (100%=total damage, 0%=no damage), read-out: Post-emergence herbicidal activity (percentage phytotoxicity) ECHCG POST) worked out at 100%; in assay [4] (pre-emergence, 480 h, PRE-emergence, rate 250 g/ha, visual score 20 DAA (100%=total damage, 0%=no damage), read-out: Pre-emergence herbicidal activity (percentage phytotoxicity) ECHCG PRE), 90%.

Consider `Cc1cc(-c2ccc(F)cn2)cc(C)c1C1C(=O)CC(CC(=O)NCc2cccs2)C1=O` (stereo not drawn) [Compound B397], for which the pest or weed control at 250 g/ha came to 90% in assay [1] (setting [5]); 80% in assay [1] (setting [6]); 90% in assay [2] (setting [7]); 70% in assay [2] (setting [8]); 90% in assay [3] (setting [9]); 70% in assay [3] (setting [10]). Further, the pest or weed control at 250 g/ha in assay [4] (setting [11]) and in assay [4] (setting [12]) was 100% in each case.
